From ChEMBL document CHEMBL5465560, “Selectivity Literature for EUbOPEN Chemogenomic Library” (2024) come the findings set out here.

Assay [1] has as its target T1, Cyclin-G-associated kinase (Homo sapiens) (UniProt O14976).
T1 sequence (whole entry): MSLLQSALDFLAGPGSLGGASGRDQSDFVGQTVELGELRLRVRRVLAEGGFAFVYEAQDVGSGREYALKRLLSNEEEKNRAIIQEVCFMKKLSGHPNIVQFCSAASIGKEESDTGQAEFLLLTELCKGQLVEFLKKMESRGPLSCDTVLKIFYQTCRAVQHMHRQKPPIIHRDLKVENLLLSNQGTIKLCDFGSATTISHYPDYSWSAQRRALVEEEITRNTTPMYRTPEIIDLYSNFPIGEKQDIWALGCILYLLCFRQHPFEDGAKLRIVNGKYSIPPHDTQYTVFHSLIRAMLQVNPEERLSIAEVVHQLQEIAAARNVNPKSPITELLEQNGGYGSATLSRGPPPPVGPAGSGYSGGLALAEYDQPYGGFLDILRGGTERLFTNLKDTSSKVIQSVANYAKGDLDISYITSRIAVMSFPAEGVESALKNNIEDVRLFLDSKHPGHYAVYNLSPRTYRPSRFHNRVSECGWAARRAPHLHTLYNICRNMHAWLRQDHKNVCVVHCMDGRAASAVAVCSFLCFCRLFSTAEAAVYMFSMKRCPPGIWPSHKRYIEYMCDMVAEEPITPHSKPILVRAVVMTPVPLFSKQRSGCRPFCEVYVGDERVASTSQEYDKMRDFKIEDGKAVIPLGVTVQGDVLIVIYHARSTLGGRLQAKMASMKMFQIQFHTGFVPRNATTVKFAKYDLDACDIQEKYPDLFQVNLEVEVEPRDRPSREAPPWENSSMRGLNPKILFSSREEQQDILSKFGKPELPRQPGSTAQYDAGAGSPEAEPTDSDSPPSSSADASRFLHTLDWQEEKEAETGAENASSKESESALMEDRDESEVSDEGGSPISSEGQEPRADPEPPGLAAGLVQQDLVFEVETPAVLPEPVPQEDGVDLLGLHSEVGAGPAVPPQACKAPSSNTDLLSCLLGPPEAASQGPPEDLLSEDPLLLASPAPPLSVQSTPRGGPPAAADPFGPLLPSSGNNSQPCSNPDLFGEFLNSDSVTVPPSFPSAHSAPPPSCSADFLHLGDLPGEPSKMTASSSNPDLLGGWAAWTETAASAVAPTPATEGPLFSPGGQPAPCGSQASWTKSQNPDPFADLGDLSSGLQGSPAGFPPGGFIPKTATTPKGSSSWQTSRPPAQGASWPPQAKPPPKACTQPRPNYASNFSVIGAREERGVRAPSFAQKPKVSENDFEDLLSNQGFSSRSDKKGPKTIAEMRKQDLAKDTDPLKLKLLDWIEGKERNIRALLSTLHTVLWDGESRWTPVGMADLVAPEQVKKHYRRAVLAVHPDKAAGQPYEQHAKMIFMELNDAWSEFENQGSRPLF
The assay is described as follows: Selectivity interaction (LanthaScreen Eu Kinase Binding Assay) EUB0001632a GAK. The conditions noted are these: at 10 µM.

Assay [2] deals with Tyrosine-protein kinase Srms (Homo sapiens) (UniProt Q9H3Y6). Description: Selectivity interaction (Kinase panel (Eurofins)) EUB0001564a SRMS. The conditions noted are these: at 1 µM.
Assay [3] addresses Serine/threonine-protein kinase 38-like (Homo sapiens) (UniProt Q9Y2H1). Description: Selectivity interaction (ActivX KiNativ screen (ex vivo kinase selectivity in human PBMCs)) EUB0001619a STK38L. The following applies: PBMC, at 1 µM. The format is cell-based.
Assay [4] concerns the target Mitogen-activated protein kinase 6 (Homo sapiens) (UniProt Q16659). The assay is described as follows: Selectivity interaction (KinomeScan (DiscoverX)) EUB0000695a MAPK6. The following applies: at 100 nM.
The target of assay [5] is Tyrosine-protein kinase Lck (Homo sapiens, UniProt P06239). The assay is described as follows: Selectivity interaction (SelectScreen profiling (Invitrogen)) EUB0000607a LCK. The conditions noted are these: at 2 µM.
The target in assay [6] is Leukocyte tyrosine kinase receptor (Homo sapiens, UniProt P29376). The following applies: at 10 µM.
Assay [7] addresses T2, Cytoplasmic tyrosine-protein kinase BMX (Homo sapiens) (UniProt P51813).
T2 sequence (whole entry): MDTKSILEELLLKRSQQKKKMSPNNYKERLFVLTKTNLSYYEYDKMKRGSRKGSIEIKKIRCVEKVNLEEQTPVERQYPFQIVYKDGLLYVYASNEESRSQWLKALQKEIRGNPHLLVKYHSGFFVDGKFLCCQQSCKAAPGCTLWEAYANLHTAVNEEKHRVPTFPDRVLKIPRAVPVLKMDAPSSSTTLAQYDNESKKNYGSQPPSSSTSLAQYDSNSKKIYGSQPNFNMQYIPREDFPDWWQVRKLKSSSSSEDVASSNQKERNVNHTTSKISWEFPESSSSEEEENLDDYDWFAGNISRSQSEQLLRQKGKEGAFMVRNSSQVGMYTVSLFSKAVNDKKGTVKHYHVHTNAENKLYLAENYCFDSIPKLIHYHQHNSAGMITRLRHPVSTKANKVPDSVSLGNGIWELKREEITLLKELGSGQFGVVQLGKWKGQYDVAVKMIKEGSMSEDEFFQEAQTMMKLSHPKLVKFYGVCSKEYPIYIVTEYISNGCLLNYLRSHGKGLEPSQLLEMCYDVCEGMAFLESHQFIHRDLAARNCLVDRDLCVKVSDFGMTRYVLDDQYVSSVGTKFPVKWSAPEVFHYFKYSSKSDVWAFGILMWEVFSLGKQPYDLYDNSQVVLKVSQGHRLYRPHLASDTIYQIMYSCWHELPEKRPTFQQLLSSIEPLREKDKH
Description: Selectivity interaction (KinomeScan (DiscoverX)) EUB0001079a BMX. The following applies: at 1 µM.

Tyrosine-protein kinase Lck, sequence (P06239 2-509 limits assumed): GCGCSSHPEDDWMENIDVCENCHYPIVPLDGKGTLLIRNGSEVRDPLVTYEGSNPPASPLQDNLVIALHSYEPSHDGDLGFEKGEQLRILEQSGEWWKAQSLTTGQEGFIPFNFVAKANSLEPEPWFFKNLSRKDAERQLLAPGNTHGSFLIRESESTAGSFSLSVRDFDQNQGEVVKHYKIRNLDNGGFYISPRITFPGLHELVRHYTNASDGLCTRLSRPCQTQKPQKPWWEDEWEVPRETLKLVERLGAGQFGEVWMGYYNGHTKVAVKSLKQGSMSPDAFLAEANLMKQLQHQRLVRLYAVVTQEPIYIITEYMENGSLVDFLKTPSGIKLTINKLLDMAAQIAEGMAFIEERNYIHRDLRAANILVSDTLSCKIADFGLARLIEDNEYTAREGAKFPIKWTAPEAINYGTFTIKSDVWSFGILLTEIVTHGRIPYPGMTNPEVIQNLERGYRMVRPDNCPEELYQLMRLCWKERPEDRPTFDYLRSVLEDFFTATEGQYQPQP
Serine/threonine-protein kinase 38-like (Homo sapiens), sequence (Q9Y2H1 2-464 limits assumed): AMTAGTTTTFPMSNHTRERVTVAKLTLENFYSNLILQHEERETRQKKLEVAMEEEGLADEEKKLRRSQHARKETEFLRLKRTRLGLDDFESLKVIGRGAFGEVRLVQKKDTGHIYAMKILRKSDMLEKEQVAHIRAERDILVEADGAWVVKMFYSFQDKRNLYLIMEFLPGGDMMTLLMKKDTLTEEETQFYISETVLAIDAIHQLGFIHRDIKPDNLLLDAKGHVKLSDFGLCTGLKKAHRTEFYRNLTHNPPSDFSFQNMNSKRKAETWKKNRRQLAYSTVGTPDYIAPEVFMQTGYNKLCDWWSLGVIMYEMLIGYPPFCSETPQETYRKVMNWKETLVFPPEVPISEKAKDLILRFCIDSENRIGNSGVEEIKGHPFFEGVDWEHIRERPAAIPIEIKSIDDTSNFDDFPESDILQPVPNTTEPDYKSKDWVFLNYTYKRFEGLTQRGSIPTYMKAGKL
Mitogen-activated protein kinase 6 (Homo sapiens), sequence (Q16659 whole entry): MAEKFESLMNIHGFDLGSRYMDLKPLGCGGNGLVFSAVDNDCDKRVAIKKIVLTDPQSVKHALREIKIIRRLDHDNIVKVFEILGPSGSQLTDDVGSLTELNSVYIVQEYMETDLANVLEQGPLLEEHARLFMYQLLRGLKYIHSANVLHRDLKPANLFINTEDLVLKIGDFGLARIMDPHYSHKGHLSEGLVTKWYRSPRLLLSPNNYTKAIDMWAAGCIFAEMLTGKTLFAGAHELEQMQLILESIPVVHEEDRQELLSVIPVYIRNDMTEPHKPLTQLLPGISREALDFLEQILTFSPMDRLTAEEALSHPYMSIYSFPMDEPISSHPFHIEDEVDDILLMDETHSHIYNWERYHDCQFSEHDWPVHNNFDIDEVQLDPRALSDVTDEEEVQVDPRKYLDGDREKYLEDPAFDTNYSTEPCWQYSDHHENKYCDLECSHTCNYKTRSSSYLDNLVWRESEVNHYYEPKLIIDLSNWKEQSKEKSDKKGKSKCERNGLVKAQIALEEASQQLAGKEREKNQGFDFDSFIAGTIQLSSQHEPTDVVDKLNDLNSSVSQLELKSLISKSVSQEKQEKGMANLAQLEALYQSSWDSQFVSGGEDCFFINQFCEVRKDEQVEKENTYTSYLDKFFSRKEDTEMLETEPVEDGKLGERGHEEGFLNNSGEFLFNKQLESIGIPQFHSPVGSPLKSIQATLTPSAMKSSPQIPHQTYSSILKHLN
Leukocyte tyrosine kinase receptor, sequence (P29376 whole entry): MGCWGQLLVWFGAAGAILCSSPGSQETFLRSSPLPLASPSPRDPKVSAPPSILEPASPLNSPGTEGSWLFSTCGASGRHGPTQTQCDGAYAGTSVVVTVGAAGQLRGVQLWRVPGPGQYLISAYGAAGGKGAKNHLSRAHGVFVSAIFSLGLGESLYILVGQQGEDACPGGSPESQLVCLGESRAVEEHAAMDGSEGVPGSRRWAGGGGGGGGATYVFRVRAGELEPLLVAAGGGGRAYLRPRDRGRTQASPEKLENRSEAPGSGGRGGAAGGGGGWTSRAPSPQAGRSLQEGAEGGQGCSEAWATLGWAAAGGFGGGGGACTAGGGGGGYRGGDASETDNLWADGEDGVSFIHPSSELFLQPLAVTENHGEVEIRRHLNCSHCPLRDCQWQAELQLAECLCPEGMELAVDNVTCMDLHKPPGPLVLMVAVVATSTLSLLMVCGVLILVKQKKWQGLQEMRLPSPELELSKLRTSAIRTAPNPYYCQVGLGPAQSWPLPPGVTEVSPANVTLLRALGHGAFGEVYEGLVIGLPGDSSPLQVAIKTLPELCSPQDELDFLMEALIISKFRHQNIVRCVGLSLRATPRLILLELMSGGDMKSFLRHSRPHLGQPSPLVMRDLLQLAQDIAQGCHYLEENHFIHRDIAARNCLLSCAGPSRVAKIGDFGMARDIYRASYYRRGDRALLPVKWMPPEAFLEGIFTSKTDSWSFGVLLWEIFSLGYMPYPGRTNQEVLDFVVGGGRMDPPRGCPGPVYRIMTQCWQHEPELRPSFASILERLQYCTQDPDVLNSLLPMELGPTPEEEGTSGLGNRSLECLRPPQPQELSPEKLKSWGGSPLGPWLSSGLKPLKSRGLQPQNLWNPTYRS
Tyrosine-protein kinase Srms (Homo sapiens), sequence (Q9H3Y6 whole entry): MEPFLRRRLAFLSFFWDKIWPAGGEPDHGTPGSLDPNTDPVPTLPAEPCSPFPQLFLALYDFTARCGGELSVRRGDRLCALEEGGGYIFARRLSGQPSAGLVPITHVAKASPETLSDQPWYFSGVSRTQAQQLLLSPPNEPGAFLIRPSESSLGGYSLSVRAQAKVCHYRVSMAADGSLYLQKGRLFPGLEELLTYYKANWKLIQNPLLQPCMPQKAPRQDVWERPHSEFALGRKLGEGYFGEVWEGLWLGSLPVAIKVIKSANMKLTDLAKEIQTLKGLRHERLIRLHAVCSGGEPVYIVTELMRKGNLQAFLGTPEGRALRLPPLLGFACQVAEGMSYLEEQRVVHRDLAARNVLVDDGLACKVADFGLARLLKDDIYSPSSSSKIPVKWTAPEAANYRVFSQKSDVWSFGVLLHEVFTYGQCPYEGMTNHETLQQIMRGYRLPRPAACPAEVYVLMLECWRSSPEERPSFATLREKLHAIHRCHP

`Cn1cc(-n2cnc3c(NCc4nc5cc(Cl)c(Cl)cc5[nH]4)nc(N4CCOCC4)nc32)cn1`: the % of inhibition in assay [1] was -16.7%.

`CC[C@@H](Nc1c(C#N)c(-c2ccc(-c3cccc(C)c3F)cc2)nc2cnccc12)C(=O)O` [BAY-091]: in assay [2], the % of inhibition worked out at 26.3%. As for `N#Cc1cccc(-c2c[nH]c3ncnc(N4CCOCC4)c23)c1`, in assay [3], the % of inhibition is 3%.

In assay [4], `Cc1cc(F)c(C(=O)Nc2cccc(-c3nncn3C(C)C)n2)cc1-n1cnc(C2CC2)c1` came in with a % of control of 81%.

For `CNC(=O)Nc1ccc(-c2nc(N3CC4CCC(C3)O4)c3cnn(C4CCC5(CC4)OCCO5)c3n2)cc1`, the % of inhibition in assay [5] came out at 10%.

With `Cc1cc([C@@H](C)Nc2ccccc2C(=O)O)c2nc(N3CCOCC3)cc(=O)n2c1` [AZD-6482], the % of control in assay [6] worked out at 95%. As for `Nc1cnc(N2CCc3cc(S(=O)(=O)Nc4c(F)cc(Cl)cc4F)cc(N4CCCC4=O)c32)nc1` [TP-020n], the % of control in assay [7] was found to be 100%.
